Like-named read-outs stand apart in the source and are kept apart here.
How the values were obtained:
K562 cells [1] = test: Complement-mediated lysis of K562 cells (Trypan blue inclusion); type: cell-based, human; conditions: for effect on complement-mediated lysis (percent cell lysis): K562 cells pretreated 60 minutes at 37° C. at different concentrations, then anti-K562 antibodies and NHS, Trypan Blue
Experimental: FIG. 1 is a histogram depicting the sensitization of cells to complement mediated lysis by MKT-077. K562 cells were pretreated for 1 hour at 37° C. with increasing concentrations of MKT-077 [or double distilled water (DDW); NT] and then treated with a sublytic dose of anti-K562 antibody (1:14) and complement [Normal human serum (NHS)] or heat-inactivated NHS (HI-NHS). After incubation for 1 hour at 37° C., percent cell lysis was measured with 0.2% Trypan Blue. Results present the percentage of cell lysis and are representative of four independent experiments. P<0.01 between NT group and the other groups.
K562 cells were treated for 60 minute at 37° C. with different concentrations of MKT-077 or Rhodamine123 (Rho123), followed by treatment for another 60 minutes with anti-K562 antibodies and NHS or HI-NHS and the cell lysis was measured by Trypan blue inclusion. Results are representative of three independent experiments. *P<0.05, between cells treated with NHS and MKT-077 and cells treated with NHS without MKT-077.
(§1) Cell lysis and collection of secreted vesicles—Cytotoxicity assay was performed as described before [Reiter, Y. and Z. Fishelson, Complement membrane attack complexes induce in human leukemic cells rapid expression of large proteins (L-CIP). Mol Immunol, 1992. 29(6): p. 771-81]. […] Cell lysis was determined by Trypan blue inclusion. Statistical significance was analyzed by using the two-sided unpaired Student's t-test. […]
MKT-077 sensitizes cells to complement-mediated lysis—Human K562 erythroleukemia cells were pretreated for 60 minutes at 37° C. with MKT-077, at different concentrations, and then the cells were treated for additional 60 minutes at 37° C. with anti-K562 antibodies for 30 minutes on ice and with complement (NHS) or heat-inactivated NHS (HI-NHS) as control. Finally, cells were washed and percent cell lysis was quantified by Trypan Blue inclusion. […]

K562 cells [2] = test: Release of mortalin and C9 by vesiculation after complement attack (Western blot); type: cell-based, human; conditions: K562 cells pretreated 1 hour with 200 μM or 50 μM, sublytic anti-K562 antibodies and NHS
Experimental: K562 cells pretreated with 50 μM MKT-077 (or with double distilled water) were treated for 10 minutes at 37° C. with a sublytic dose of anti-K562 antibody and NHS or HI-NHS. Then, the cells were washed 4 times with Hank's Balanced Salt Solution (HBSS; Sigma, Rehovot, Israel), incubated for 10 minutes at 37° C. and supernatant were collected. Released proteins were first sedimented at 5,000 g for 15 minutes and then centrifuged at 100,000 g for 30 minutes for vesicles isolation. High-speed supernatant and pellets were analyzed by SDS-PAGE and Western Blotting with anti-mortalin (FIG. 2a) or anti-C9 (FIG. 2b) antibodies. Results are representative of three independent experiments.
as §1
Protein analysis—Protein concentration was analyzed with the BCA Protein Assay Kit (Pierce, Rockford, Ill., USA). […]

[3] = system: HCT116 colon carcinoma cell line (HCT) p53 +/+ and HCT p53 −/− cells; test: Complement-mediated lysis of HCT p53 +/+ and HCT p53 −/− cells; type: cell-based; conditions: HCT p53 +/+ versus HCT p53 −/− cells
Experimental: FIG. 3 is a histogram depicting that the effect of MKT-077 on complement-mediated lysis is p53-independent. HCT116 colon carcinoma cell line (HCT) p53 +/+ and HCT p53 −/− cells were pretreated for 1 hour at 37° C. with 50 μM MKT-077 and then treated with a lytic dose of anti-K562 antibody (1:9) and NHS or HI-NHS. After incubation for 1 hour at 37° C., percent cell lysis was measured by Trypan blue inclusion. Results present the percentage of cell lysis and are representative of three independent experiments.
Cell lysis and collection of secreted vesicles—Cytotoxicity assay was performed as described before [Reiter, Y. and Z. Fishelson, Complement membrane attack complexes induce in human leukemic cells rapid expression of large proteins (L-CIP). Mol Immunol, 1992. 29(6): p. 771-81]. Briefly, for a cell lysis assay, cells were incubated with diluted anti-K562 antiserum for 30 minutes at 4° C. and then with complement [NHS or heat-inactivated normal human serum (HI-NHS), 50%] for 60 minutes at 37° C. Cell lysis was determined by Trypan blue inclusion. Statistical significance was analyzed by using the two-sided unpaired Student's t-test. […]
The effect of MKT-077 on complement-mediated lysis is p53-independent—MKT-077 is known to prevent the binding of mortalin to p53 (Wadhwa et al. Cancer Res. 15: 6818-6821, 2000). […] After 60 minutes at 37° C., percent lysis was measured.

K562 cells [4] = test: SLO-mediated lysis of K562 cells; type: cell-based, human; conditions: K562 pretreated 1 hour with 50 μM, then 900 and 1200 units ml^−1 SLO, 15 minutes at 37° C.
Experimental: (§2) FIG. 4a—K562 cells were pretreated for 1 hour at 37° C. with 50 μM MKT-077 and then treated with 900 and 1200 units ml^−1 SLO or with DTT as control. After 15 minutes at 37° C., cell lysis was measured by Trypan blue inclusion. Results are representative of three independent experiments. FIG. 4b—K562 cells were treated for 1 hour at 37° C. with increased concentrations of A23187 and with 50 μM MKT-077. Cell lysis was then measured by Trypan blue inclusion. Results present the percentage of cell lysis and are representative of three independent experiments.
(§3) MKT-077 has no effect on SLO-mediated lysis and A23187-mediated lysis—The present inventors have further addressed the question of specificity of the effect of MKT-077 on cell death. The effect of MKT-077 on cell death induced by Streptolysin O (SLO), another cytolytic pore-forming protein, was examined. Cells were pretreated with MKT-077 and then treated with several doses of SLO or with dithiothreitol (DTT) as control. Lysis was measured after 15 minutes incubation at 37° C. Results presented in FIG. 4a show no effect of MKT-077 on SLO-mediated lysis. The present inventors have further examined the effect of MKT-077 on cell death induced by the Ca^+2 ionophore A23187. […] Next, the cells were washed and percent cell death was measured.

K562 cells [5] = test: A23187-mediated lysis of K562 cells; type: cell-based, human; conditions: K562 treated 1 hour at 37° C. with increased concentrations of A23187 and 50 μM MKT-077
Experimental: as §2, §3

mortalin binding to C9 = target: T1, mortalin binding to C9 (Homo sapiens, UniProt P38646); test: Binding of mortalin to complement C9 (ELISA); conditions: K562 cell lysate with or without 50 μM MKT-077 on C9-coated wells; P<0.005
T1 construct: incubated with K562 lysates (source for mortalin), with or without MKT-077; endogenous in cells; host or cells: K562 cell lysate
T1 sequence (P38646 47-679): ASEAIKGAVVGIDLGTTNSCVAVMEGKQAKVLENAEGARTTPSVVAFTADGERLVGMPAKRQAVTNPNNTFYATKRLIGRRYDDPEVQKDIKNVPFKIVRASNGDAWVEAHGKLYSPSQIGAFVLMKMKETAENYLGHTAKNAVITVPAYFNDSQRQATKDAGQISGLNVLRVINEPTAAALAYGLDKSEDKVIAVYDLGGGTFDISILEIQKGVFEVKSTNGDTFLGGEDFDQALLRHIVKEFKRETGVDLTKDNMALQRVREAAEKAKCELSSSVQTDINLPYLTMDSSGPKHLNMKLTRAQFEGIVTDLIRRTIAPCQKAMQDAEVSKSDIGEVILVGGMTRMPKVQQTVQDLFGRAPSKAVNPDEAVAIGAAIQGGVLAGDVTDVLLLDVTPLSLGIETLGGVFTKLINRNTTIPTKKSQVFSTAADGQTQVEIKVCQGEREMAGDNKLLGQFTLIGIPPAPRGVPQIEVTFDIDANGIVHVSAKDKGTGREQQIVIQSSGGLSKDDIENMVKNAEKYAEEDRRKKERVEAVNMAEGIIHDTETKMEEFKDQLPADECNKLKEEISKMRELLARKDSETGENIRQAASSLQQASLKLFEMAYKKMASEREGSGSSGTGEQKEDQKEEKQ
Experimental: FIG. 5 is a histogram depicting the interference of MKT-077 with binding of mortalin to C9. Microtiter plate wells were coated overnight with C9 or BSA (0.5 μg per well) and then incubated with K562 cell lysate (40×10^6 cells ml^−1 lysis buffer) diluted 1:25 with or without 50 μM MKT-077. The wells were washed and treated with anti-mortalin antibody and peroxidase-labeled second antibody, developed with o-phenilenediamine (OPD) and analyzed in an ELISA reader. Results present the quantity of mortalin in each experimental group and are representative of three independent experiments. *,P<0.005 between groups with and without MKT-077.
Binding of mortalin to complement C9—Binding of mortalin to the complement C9 protein was examined by ELISA analysis. In brief, purified human C9 and BSA (0.5 μg per well each) were bound overnight at 4° C. to a 96-well Enzyme Immunoassay (EIA) plate (Corning, N.Y., USA). Diluted cell lysate prepared from 40×10^6 K562 cells as described above was added to each well for 60 minutes at 37° C. After washes, monoclonal mouse anti-mortalin antibody (diluted 1:500) was added for 30 minutes at 37° C. and then peroxidase-conjugated goat anti-mouse IgG was added for 30 minutes at room temperature. Next, o-phenylenediamine (Sigma) was added and the plate was examined in a Spectrafluor Plus plate reader (Tecan, Austria) at 450 nm. […]

[6] = cited from earlier work
[7] = cited from earlier work; remark: listed apart in the source
human tumor cells = human tumor cells tested; cited from earlier work
[8] = bolus dose (30 minutes i.v. infusion) 126 mg/m^2/week X 4 weeks every 6 weeks

Molecule | effect on complement-mediated lysis (percent cell lysis) (K562 cells [1]) | mortalin dependence of the effect on complement-mediated lysis (K562 cells [1]; data not shown) | release of C9 by vesiculation (K562 cells [2]; Western blot anti-C9) | release of mortalin by vesiculation (K562 cells [2]; Western blot anti-mortalin) | p53 dependence of the complement sensitization effect [3] | effect on SLO-mediated lysis (K562 cells [4]) | effect on A23187-mediated lysis (K562 cells [5]) | ability of mortalin to bind C9 (mortalin binding to C9) | toxicity ([6]; cancer patients, continuous i.v. infusion 150 mg/m^2/five days (30 mg/m^2, day, for 5 days)) | toxicity ([6]; five-day infusion (30-50 mg/m^2/day) once every three weeks, chemo-resistant solid tumors) | associated toxicity [7, 8] | plasma concentrations [7, 8] | tolerability [7, 8] | toxicity ([7]; single bolus weekly infusion (42 mg/m^2) for 4 weeks every 6 weeks) | IC50 concentrations required in vitro (human tumor cells)
CCn1c(=Cc2cccc[n+]2CC)sc(=C2Sc3ccccc3N2C)c1=O.[Cl-] [MKT-077] | significantly enhances killing | mortalin-dependent | inhibited | inhibited | presence or absence of p53 had no effect | no effect | no effect | significant decrease | renal toxicity | renal toxicity | hypomagnesemia (kidney toxicity) | 1.2-6.3 microgram/ml | well tolerated | manageable hypomagnesemia | 0.15-0.5 microgram/ml
Rhodamine123 | no effect | – | – | – | – | – | – | – | – | – | – | – | – | – | –

— patent US20110059070A1, “Combination therapy for tumoral desease treatment” (Ramot At Tel Aviv University Ltd., priority 2006, published 2011)
